The values below come from patent US20240228506A1, “RIPK1 INHIBITORS AND METHODS OF USE” (Merck Sharp & Dohme LLC, priority 2021, published 2024).

SMILES strings stand for the structures.

In the experiment the target is T1, GST-RIPK1 (recombinant GST-RIPK1 kinase domain (residues 1-327)) (Homo sapiens, UniProt Q13546).
T1 construct: recombinant GST-RIPK1 kinase domain (residues 1-327) enzyme; made in house; host or cells: baculovirus-transfected Sf21 insect cells
T1 sequence (Q13546 1-327): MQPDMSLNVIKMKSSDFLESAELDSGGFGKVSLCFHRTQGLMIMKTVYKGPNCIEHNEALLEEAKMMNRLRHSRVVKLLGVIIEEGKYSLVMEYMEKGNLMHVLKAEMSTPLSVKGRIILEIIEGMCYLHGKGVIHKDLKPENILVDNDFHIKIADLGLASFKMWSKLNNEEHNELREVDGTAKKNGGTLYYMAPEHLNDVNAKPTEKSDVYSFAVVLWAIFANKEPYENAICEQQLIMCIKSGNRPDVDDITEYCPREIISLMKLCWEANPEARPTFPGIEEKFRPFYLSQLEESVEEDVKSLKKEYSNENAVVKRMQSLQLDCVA
Kind of experiment: RIPK1-ADP-Glo enzymatic assay. It counts as biochemical. Conditions: 25 nM GST-RIPK1, 300 μM ATP, 3 μM dephosphorylated-MBP; 30 minutes pre-incubation, 150 minutes reaction; ten-point titration. On the procedure:
The enzymatic activity of RIPK1 is measured using an assay derived from ADP-Glo kit (Promega™), which provides a luminescent-based ADP detection system. Specifically, the ADP generated by RIPK1 kinase is proportionally detected as luminescent signals in a homogenous fashion. In this context, the assessment of the inhibitory effect of small molecules (EC50) is measured by the effectiveness of the compounds to inhibit the ATP to ADP conversion by RIPK1. In this assay, the potency (EC50) of each compound was determined from a ten-point (1:3 serial dilution; top compound concentration of 100000 nM) titration curve using the following outlined procedure. To each well of a white ProxiPlus 384 well-plate, […] of compound (1% DMSO in final assay volume of 3 μL) was dispensed, followed by the addition of 2 μL of 1× assay buffer (25 mM Hepes 7.3, 20 mM MgCl2, 50 mM NaCl, 1 mM DTT, 0.005% Tween20, and 0.02% BSA) containing 37.5 nM of GST-RIPK1 (recombinant GST-RIPK1 kinase domain (residues 1-327) enzyme produced from baculovirus-transfected Sf21 cells: MW=62 kDa). Plates were placed in an ambient temperature humidified chamber for a 30 minutes pre-incubation with compound. Subsequently, each reaction was initiated by the addition of 1 μL 1×assay buffer containing 900 μM ATP and […]. The final reaction in each well of 3 μL consists of 25 nM of GST-RIPK1, 300 μM ATP, and 3 μM dephosphorylated-MBP. Kinase reactions were allowed to proceed for 150 minutes prior to adding ADP-Glo reagents per Promega's outlined kit protocol. Dose-response curves were generated by plotting percent effect (% product conversion; Y-axis) vs. Log10 compound concentrations (X-axis). EC50 values were calculated using a non-linear regression, four-parameters sigmoidal dose-response model.
(ADP-Glo turns the ADP formed in a reaction into a luminescent signal.)
As usually defined, the IC50 is the concentration at which inhibition is half-maximal. In the case of `CC(C)(C(=O)N1C[C@@H]2C[C@H]1c1cncc(C#Cc3ccc(C#N)nc3)c1O2)C(F)F` [Compound 2-87, 5-(((2S,5S)-4-(3,3-difluoro-2,2-dimethylpropanoyl)-2,3,4,5-tetrahydro-2,5-methanopyrido[3,4-f][1,4]oxazepin-9-yl)ethynyl)picolinonitrile], the 50% inhibitory concentration (IC50) worked out at 32 nM.
On to `CC(C)(CC(F)F)C(=O)N1C[C@@H]2C[C@H]1c1cncc(C#N)c1O2` [Compound 1-15, (2S,5S)-4-(4,4-difluoro-2,2-dimethylbutanoyl)-2,3,4,5-tetrahydro-2,5-methanopyrido[3,4-f][1,4]oxazepine-9-carbonitrile], for which the half-inhibitory concentration (IC50) was 99 nM.
To `CC1(C(=O)N2C[C@@H]3C[C@H]2c2cncc(C#N)c2O3)CCCO1` (mixture of isomers) [Compound 1-64, (2S,5S)-4-(2-(S and R)-methyltetrahydrofuran-2-carbonyl)-2,3,4,5-tetrahydro-2,5-methanopyrido[3,4-f][1,4]oxazepine-9-carbonitrile] belongs 729 nM; to `COC1(C(=O)N2C[C@@H]3C[C@H]2c2cncc(C#N)c2O3)CCCC1` [Compound 1-65, (2S,5S)-4-(1-methoxycyclopentane-1-carbonyl)-2,3,4,5-tetrahydro-2,5-methanopyrido[3,4-f][1,4]oxazepine-9-carbonitrile], 76 nM.
With `N#Cc1cncc2c1O[C@H]1C[C@@H]2N(C(=O)C2(C(F)F)CCC2)C1` [Compound 1-23, (2S,5S)-4-[1-(difluoromethyl)cyclobutane-1-carbonyl]-2,3,4,5-tetrahydro-2,5-methanopyrido[3,4-f][1,4]oxazepine-9-carbonitrile] the figure was 88 nM; with `N#Cc1cncc2c1O[C@H]1C[C@@H]2N(C(=O)C2(F)CCN(C(=O)c3ccccc3)CC2)C1` [Compound 1-54, (2S,5S)-4-(1-benzoyl-4-fluoropiperidine-4-carbonyl)-2,3,4,5-tetrahydro-2,5-methanopyrido[3,4-f][1,4]oxazepine-9-carbonitrile], 116 nM; with `CC1(C(=O)N2C[C@@H]3C[C@H]2c2cncc(C#N)c2O3)CCCC1(F)F` (single isomer, unassigned) [Compound 1-38], 21 nM.
To `CC1(C(=O)N2C[C@@H]3C[C@H]2c2cncc(C#N)c2O3)CCCC1` [Compound 1-5, (2S,5S)-4-(1-methylcyclopentane-1-carbonyl)-2,3,4,5-tetrahydro-2,5-methanopyrido[3,4-f][1,4]oxazepine-9-carbonitrile] belongs 22 nM.
Turning to `COc1cc(N2CCC(F)(C(=O)N3C[C@@H]4C[C@H]3c3cncc(C#N)c3O4)CC2)ncn1` [Compound 1-53, (2S,5S)-4-(4-fluoro-1-(6-methoxypyrimidin-4-yl)piperidine-4-carbonyl)-2,3,4,5-tetrahydro-2,5-methanopyrido[3,4-f][1,4]oxazepine-9-carbonitrile], the half-maximal inhibitory concentration (IC50) is 226 nM.
To `CC1OCCC1(C)C(=O)N1C[C@@H]2C[C@H]1c1cncc(C#N)c1O2` (stereo partly drawn) [Compound 1-59, (2S,5S)-4-(2,3-dimethyltetrahydrofuran-3-carbonyl)-2,3,4,5-tetrahydro-2,5-methanopyrido[3,4-f][1,4]oxazepine-9-carbonitrile] belongs 587 nM; to `N#Cc1cncc2c1O[C@H]1C[C@@H]2N(C(=O)[C@H]2C[C@@H](Oc3ccc(F)cc3F)C2)C1` [Compound 1-101], 132 nM.
With `CCC(C)(C#N)C(=O)N1C[C@@H]2C[C@H]1c1cncc(C#N)c1S2` (single isomer, unassigned) [Compound 4-10, (2S,5S)-4-(2-(R or S)-cyano-2-methylbutanoyl)-2,3,4,5-tetrahydro-2,5-methanopyrido[3,4-f][1,4]thiazepine-9-carbonitrile] the figure was 43 nM; with `O=C(N1C[C@@H]2C[C@H]1c1cncc(C#CCC3CCOC3)c1O2)C12CCC(F)(CC1)C2` (stereo partly drawn) [Compound 2-118, (4-fluorobicyclo[2.2.1]heptan-1-yl)((2S,5S)-9-(3-(tetrahydrofuran-3-yl)prop-1-yn-1-yl)-2,3-dihydro-2,5-methanopyrido[3,4-f][1,4]oxazepin-4(5H)-yl)methanone], 64 nM.
With `Cc1ncc2c(c1F)O[C@H]1C[C@@H]2N(C(=O)C23CCC(F)(CC2)C3)C1` [Compound 2-28, ((2S,5S)-9-fluoro-8-methyl-2,3-dihydro-2,5-methanopyrido[3,4-f][1,4]oxazepin-4(5H)-yl)(4-fluorobicyclo[2.2.1]heptan-1-yl)methanone] the figure was 59 nM; with `O=C(N1C[C@@H]2C[C@H]1c1cncc(C#Cc3ccncc3)c1O2)C12CCC(C(F)(F)F)(CC1)C2` [Compound 2-52, ((2S,5S)-9-(pyridin-4-ylethynyl)-2,3-dihydro-2,5-methanopyrido[3,4-f][1,4]oxazepin-4(5H)-yl)(4-(trifluoromethyl)bicyclo [2.2.1]heptan-1-yl)methanone], 30 nM.
On to `CCC(C)(C(=O)N1C[C@@H]2C[C@H]1c1cncc(C#N)c1O2)C(F)F` (single isomer, unassigned) [Compound 1-84, (2S,5S)-4-(2-(R or S)-(difluoromethyl)-2-methylbutanoyl)-2,3,4,5-tetrahydro-2,5-methanopyrido[3,4-f][1,4]oxazepine-9-carbonitrile], for which the IC50 amounted to 47 nM.
For the molecule `CC[C@H](C)CC#Cc1cncc2c1O[C@H]1C[C@@H]2N(C(=O)C(C)(C)C(F)F)C1` [Compound 2-112, 3,3-difluoro-2,2-dimethyl-1-((2S,5S)-9-((S)-4-methylhex-1-yn-1-yl)-2,3-dihydro-2,5-methanopyrido[3,4-f][1,4]oxazepin-4(5H)-yl)propan-1-one], the half-inhibitory concentration (IC50) is 83 nM.
To `N#Cc1cncc2c1O[C@H]1C[C@@H]2N(C(=O)C23CCCC2C3(F)F)C1` (single isomer, unassigned) [Compound 1-87, (2S,5S)-4-((1R,5S or 1S,5R)-6,6-difluorobicyclo[3.1.0]hexane-1-carbonyl)-2,3,4,5-tetrahydro-2,5-methanopyrido[3,4-f][1,4]oxazepine-9-carbonitrile] belongs 68 nM; to `Cc1ncc(C#Cc2cncc3c2O[C@H]2C[C@@H]3N(C(=O)C(C)(C)C(F)F)C2)cn1` [Compound 2-76, 3,3-difluoro-2,2-dimethyl-1-((2S,5S)-9-((2-methylpyrimidin-5-yl)ethynyl)-2,3-dihydro-2,5-methanopyrido[3,4-f][1,4]oxazepin-4(5H)-yl)propan-1-one], 33 nM.
To `N#Cc1cncc2c1O[C@H]1C[C@@H]2N(C(=O)C23CC(Cl)(C2)C3)C1` [Compound 1-93, (2S,5S)-4-(3-chlorobicyclo[1.1.1]pentane-1-carbonyl)-2,3,4,5-tetrahydro-2,5-methanopyrido[3,4-f][1,4]oxazepine-9-carbonitrile] belongs 88 nM; to `CCC(C#N)(CC)C(=O)N1C[C@@H]2C[C@H]1c1cncc(C#N)c1O2` [Compound 1-21, (2S,5S)-4-(2-cyano-2-ethylbutanoyl)-2,3,4,5-tetrahydro-2,5-methanopyrido[3,4-f][1,4]oxazepine-9-carbonitrile], 366 nM; to `O=C(N1C[C@@H]2C[C@H]1c1cncc(F)c1O2)C12CCC(C(F)(F)F)(CC1)C2` [Compound 2-14, ((2S,5S)-9-fluoro-2,3-dihydro-2,5-methanopyrido[3,4-f][1,4]oxazepin-4(5H)-yl)(4-(trifluoromethyl)bicyclo [2.2.1]heptan-1-yl)methanone], 20 nM.
With `COc1ccnc(C#Cc2cncc3c2O[C@H]2C[C@@H]3N(C(=O)C34CCC(C(F)(F)F)(CC3)C4)C2)c1` [Compound 2-69, ((2S,5S)-9-((4-methoxypyridin-2-yl)ethynyl)-2,3-dihydro-2,5-methanopyrido[3,4-f][1,4]oxazepin-4(5H)-yl)(4-(trifluoromethyl)bicyclo [2.2.1]heptan-1-yl)methanone] the figure was 41 nM.
With `Cc1ncc2c(n1)O[C@H]1C[C@@H]2N(C(=O)C23CCC(F)(CC2)C3)C1` [Compound 3-4, (4-fluorobicyclo[2.2.1]heptan-1-yl)((5S,8S)-2-methyl-7,8-dihydro-5,8-methanopyrimido[5,4-f][1,4]oxazepin-6(5H)-yl)methanone], the IC50 was 1230 nM.
